Reference: the supplement of paper PMC13380429

Columns and labels:
Settings in all cases: 72 h
HepG2 [1] = test: cell viability relative to DMSO; higher = less toxic
Vero E6 [2] = test: as above
U2OS [3] = test: as above
Calu-3 [4] = test: as above
Caco-2 [5] = test: as above
HepG2 [6] = test: relative viability EC50 (midpoint between 100% and the lowest measured viability); higher = less toxic
Vero E6 [7] = test: as above
U2OS [8] = test: as above
Calu-3 [9] = test: as above
Caco-2 [10] = test: as above
HepG2 [11] = test: drug sensitivity score (DSS) for viability; higher = more toxic; extreme values may be limits of the assay
Vero E6 [12] = test: as above
U2OS [13] = test: as above
Calu-3 [14] = test: as above
Caco-2 [15] = test: as above

Compound	cell viability (HepG2 [1]; 1 nM) [%]	cell viability (HepG2 [1]; 10 nM) [%]	cell viability (HepG2 [1]; 100 nM) [%]	cell viability (HepG2 [1]; 1000 nM) [%]	cell viability (HepG2 [1]; 10000 nM) [%]	cell viability (Vero E6 [2]; 1 nM) [%]	cell viability (Vero E6 [2]; 10 nM) [%]	cell viability (Vero E6 [2]; 100 nM) [%]	cell viability (Vero E6 [2]; 1000 nM) [%]	cell viability (Vero E6 [2]; 10000 nM) [%]	cell viability (U2OS [3]; 1 nM) [%]	cell viability (U2OS [3]; 10 nM) [%]	cell viability (U2OS [3]; 100 nM) [%]	cell viability (U2OS [3]; 1000 nM) [%]	cell viability (U2OS [3]; 10000 nM) [%]	cell viability (Calu-3 [4]; 1 nM) [%]	cell viability (Calu-3 [4]; 10 nM) [%]	cell viability (Calu-3 [4]; 100 nM) [%]	cell viability (Calu-3 [4]; 1000 nM) [%]	cell viability (Calu-3 [4]; 10000 nM) [%]	cell viability (Caco-2 [5]; 1 nM) [%]	cell viability (Caco-2 [5]; 10 nM) [%]	cell viability (Caco-2 [5]; 100 nM) [%]	cell viability (Caco-2 [5]; 1000 nM) [%]	cell viability (Caco-2 [5]; 10000 nM) [%]	relative viability EC50 (HepG2 [6]) [µM]	relative viability EC50 (Vero E6 [7]) [µM]	relative viability EC50 (U2OS [8]) [µM]	relative viability EC50 (Calu-3 [9]) [µM]	relative viability EC50 (Caco-2 [10]) [µM]	drug sensitivity score (HepG2 [11])	drug sensitivity score (Vero E6 [12])	drug sensitivity score (U2OS [13])	drug sensitivity score (Calu-3 [14])	drug sensitivity score (Caco-2 [15])
Cn1ccnc1S [methimazole]	109	95.4	109	81.7	101	104	99.3	102	106	101	98	101	98.7	99.8	98.5	93.9	97.3	100	100	94.5	99.3	84.3	99.7	86.5	101	> 10	> 10	> 10	> 10	> 10	0	0	0	0	0
C[C@H]1C[C@@H]2[C@H]([C@@H](O)C[C@@]3(C)[C@H]2CC[C@]3(O)C(=O)COC(=O)CCC(=O)O)[C@@]2(C)C=CC(=O)C=C12 [methylprednisolone-sodium-succinate]	98.2	101	89.6	103	91.2	100	103	101	96	98.2	99.2	93.8	95	92.5	93.9	108	99	88.8	91.2	122	104	94.6	98.3	99.6	92.5	> 10	> 10	> 10	> 10	> 10	0	0	0	0	0
C[C@](N)(Cc1ccc(O)cc1)C(=O)O [metirosine]	86.6	97.3	96.4	97.1	91.4	95.8	94.8	95.1	95.9	96.4	101	96	101	96	99.5	112	113	106	97.3	99.5	97.7	96.9	93.5	88.1	94.8	> 10	> 10	> 10	> 10	> 10	0	0	0	0	0
N=C1NC(=O)/C(=C/c2ccc(O)cc2)S1 [mirin]	98.3	91.1	95.2	98	96.8	99.2	96.2	96.5	93.3	104	95.3	101	97.5	99.6	97.9	89.9	105	94.8	93.4	87.8	95	97.8	101	97.6	96.2	> 10	> 10	> 10	> 10	> 10	0	0	0	0.1	0
O=C1c2c(O)ccc(O)c2C(=O)c2c(NCCNCCO)ccc(NCCNCCO)c21 [mitoxantrone]	93.1	82.4	53.2	21.8	1.7	98.8	96	66.5	51.4	13.6	95.8	102	88.7	30.6	0.7	104	98.4	65.1	46.7	28.9	93.3	96.5	86.2	53	22.3	0.11	0.35	0.514	0.15	0.565	21.6	13.9	14.6	14.6	10.7
CC1(C)CNc2cc(NC(=O)c3cccnc3NCc3ccncc3)ccc21 [motesanib]	95.9	94	97.4	93.5	84.9	97.3	102	94.9	94	96.9	103	96.7	97.9	98.9	96.8	111	99.6	110	110	108	94.6	95.5	96.8	92.1	93.2	> 10	> 10	> 10	> 10	> 10	0.1	0	0	0	0
CCCc1c2oc(C(=O)O)cc(=O)c2cc2c(=O)cc(C(=O)O)n(CC)c12 [nedocromil]	113	86.5	91.5	90.6	100	121	100	115	95.7	109	102	106	99.4	104	97.1	102	99.4	103	107	98.4	98.3	99.8	97.9	105	100	> 10	> 10	> 10	> 10	> 10	0	0	0	0	0
CC(=O)C(=Cc1cc(O)c(O)c([N+](=O)[O-])c1)C(C)=O [nitecapone]	103	94	96.5	98.4	93.7	109	107	105	98.7	105	98.8	102	96.6	103	95.6	97.5	93.7	105	109	110	94.7	92.1	99.9	95.7	96.4	> 10	> 10	> 10	> 10	> 10	0	0	0	0	0
CC1(C)CC[C@]2(C(=O)O)CC[C@]3(C)C(=CC[C@@H]4[C@@]5(C)CC[C@H](O)C(C)(C)[C@@H]5CC[C@]43C)[C@@H]2C1 [oleanolic-acid]	106	96.2	89.9	99.9	94.7	96.3	94.7	94.9	95.3	95.3	95.2	98.1	94.4	102	94.5	109	110	98.3	109	89.8	104	97.1	93	104	95.6	> 10	> 10	> 10	> 10	> 10	0	0	0	0	0
Cc1[nH]c(=O)c(C#N)cc1-c1ccc2nccn2c1 [olprinone]	93.2	102	103	104	104	98.5	106	94.2	102	96.7	105	102	101	99.9	102	107	112	93.2	104	98.3	98.7	99.6	91.2	92	94.8	> 10	> 10	> 10	> 10	> 10	0	0	0	0	0
Cc1ncc([N+](=O)[O-])n1CC(O)CCl (stereo not given) [ornidazole]	101	98	91.6	107	99.7	101	96.6	97.4	96	104	91.3	97.1	91.8	95.8	102	99.9	95.1	93.8	96.1	108	103	101	99.1	102	98.4	> 10	> 10	> 10	> 10	> 10	0	0	0	0	0
O=C1CCCN1CC#CCN1CCCC1 [oxotremorine-sesquifumarate]	101	96	104	94.9	82.6	105	105	104	93.8	92.8	97	94.3	95.3	100	102	96	96	91.9	105	101	110	99.1	94.7	103	98.3	> 10	> 10	> 10	> 10	> 10	0.9	0	0	0	0
CCCCOc1cc(C(=O)OCCN(CC)CC)ccc1N [oxybuprocaine]	105	117	95.7	97.8	90	103	105	101	102	97.9	104	96.7	105	101	101	96	106	110	107	98.7	106	96.9	98.7	100	100	> 10	> 10	> 10	> 10	> 10	0	0	0	0	0
Oc1nc(O)c2cn[nH]c2n1 [oxypurinol]	108	86.2	104	101	96	96.1	103	98.5	101	100	101	102	93.6	99.5	99.8	95.6	108	97.2	107	94.6	107	100	98	97.7	97.1	> 10	> 10	> 10	> 10	> 10	0	0	0	0	0
